In patent US20040029944A1 (priority 2001, published 2004):
Where two headings read alike, the source gives them in different places.

Tested on: Phytophthora infestans
Type: in vivo
Conditions: individual active compound, tomato leaves, protective, evaluated after 6 days

Compound: Cc1ccc(-c2c(Cl)nc(C#N)n2S(=O)(=O)N(C)C)cc1 [Ia, cyazofamid]
- Efficacy in % of the untreated control (0.05 ppm in the spray liquor): 58%
- Efficacy in % of the untreated control (0.1 ppm in the spray liquor): 74%
- Efficacy in % of the untreated control (0.2 ppm in the spray liquor): 84%
